Results on 121 compounds are retold here after the SangsterLogP compilation.

A short description of the first data set: method code SF, from Hansch, C. & Leo, A. (1987). Log P database [Dataset]. Pomona College Medicinal Chemistry Project.
Details: not given
As a reminder, the logP is the decadic logarithm of the partition coefficient of the neutral form, usually between octanol and water. A high value points to a more lipophilic compound. With `O=C(O)COc1ccc(Cl)c(C(=O)O)c1`, the lipophilicity (logP) is 1.07.
`N#CN=[N+]([O-])c1ccc(C(F)(F)F)cc1` showed a logP of 2.47.
In turn, `CN(C)CC(CN1c2ccccc2Sc2ccccc21)N(C)C` (stereo unspecified) registered a logP of 4.76.
Still for that read-out and setting: in the case of `O=C(O)c1ccsc1` it was 1.5; in that of `COC(=O)CNC(=O)c1ccc(N)cc1`, -0.23.
The same measure, in the same setting: with `O=C1OC(C2CCCCC2)c2ccccc21` (stereo unspecified) the figure was 3.34; with `O=S(=O)(NO)c1ccccc1`, 0.48.
The same measure, in the same setting: with `CS(=O)(=O)Nc1cccc(NS(C)(=O)=O)c1` the figure was 0.07; with `COc1cc(OC)c(OC)c2c1CC[C@H](NC(C)=O)c1cc(=O)c(NCc3ccccc3)ccc1-2`, 3.58.
On to `N#Cc1cccc(OC(=O)CNC(=O)c2ccccc2)c1`, for which the log partition coefficient (logP) stood at 2.11.
The same measure, in the same setting: in the case of `ClCCCCl` it was 2; in that of `CCCNP(=O)(OC)Oc1cc(Cl)c(Cl)cc1Cl` (stereo unspecified), 3.7; in that of `CCN(CC)c1ccc(CO)cc1`, 2.29.
On to `C[C@@H](O)c1ccccc1`, for which the logP amounted to 1.42.
For `CC(C)c1ccc(C(N)=O)cc1`, the logP was determined as 2.14.
The same measure, in the same setting: in the case of `CCCCN(CCCC)C(=O)COc1ccccc1` it was 3.23; in that of `Cc1nnc(SCc2ccccc2)o1`, 1.74.
Same read-out and setting: in the case of `c1ccc(-n2cccn2)cc1` it was 2.2; in that of `CC(=O)c1ccc2ccccn12`, 2.06; in that of `CON(C)C(=O)Nc1cccc(OCc2ccccc2)c1`, 3.11.
The same measure, in the same setting: with `NC(=O)c1cccc(O)c1` the figure was 0.39; with `O=S1(=O)NC=Nc2ccc(Cl)cc21`, 1.07; with `CCOC(CCC#N)OCC`, 0.75.
As to `CNC(=O)NC`, the lipophilicity (logP) was -0.96.
The same measure, in the same setting: in the case of `O=C(CNC(=O)c1ccccc1)Oc1cccc(F)c1` it was 2.58.
On the same count and under the same terms, with `O=C1C(N2CCN(CCO)CC2)=C(N2CC2)C(=O)C(N2CCN(CCO)CC2)=C1N1CC1` the figure was -0.73; with `CC(=S)Oc1ccccc1`, 1.91.
Still for that read-out and setting: in the case of `C=C(C)C1Cc2c(ccc3c2OC2COc4cc(OC)c(OC)cc4C2C3=O)O1` (stereo unspecified) it was 4.1.
On to `CO[C@H]1/C=C\O[C@@]2(C)Oc3c(C)c(O)c4c(O)c(c(/C=N/OCCCc5ccccc5)c(O)c4c3C2=O)NC(=O)/C(C)=C\C=C/[C@H](C)[C@H](O)[C@@H](C)[C@@H](O)[C@@H](C)[C@H](OC(C)=O)[C@@H]1C`, for which the logP stood at 4.83.
Still for that read-out and setting: in the case of `C[C@@H]1C[C@H]2[C@@H]3C[C@H](F)C4=CC(=O)C(Cl)=C[C@]4(C)[C@@]3(F)[C@@H](O)C[C@]2(C)[C@@]1(O)C(=O)CO` it was 2.58; in that of `CON(C)C(=O)Nc1cccc(C#N)c1`, 1.33.
The same measure, in the same setting: with `CC(=O)Oc1cccc(F)c1` the figure was 1.74; with `O=NN(CCF)C(=O)NCCCl`, 0.95; with `CC(=O)Nc1ccc(Oc2ccccc2)cc1`, 3.13.
Take `CC(=O)NC(=O)NC(C)=O`: the logP is -0.68.
`Cc1cccc2cccnc12`: the logP came to 2.6.
In turn, `CCOC(=O)C(=Cc1ccc(OC)cc1OC)C(C)=O` displayed a logP of 2.41.
On the same count and under the same terms, with `CC1=Nc2ccc([N+](=O)[O-])cc2S(=O)(=O)N1` the figure was 0.65; with `CC(CN(C)C)CN1c2ccccc2Sc2ccccc21` (stereo unspecified), 4.71.
Same read-out and setting: with `CC(=O)Oc1cccc(Cl)c1` the figure was 2.32.
Same read-out and setting: with `CC(=O)OCC(=O)[C@@]12OC(C)(C)O[C@@H]1C[C@H]1[C@@H]3C[C@H](F)C4=CC(=O)C=C[C@]4(C)[C@@]3(F)[C@@H](O)C[C@@]12C` the figure was 3.19; with `CCC(C)NC(=O)/C(F)=C\c1ccccc1` (stereo unspecified), 3.1.
Regarding `COc1cccc2c1C(=O)c1c(O)c3c(c(O)c1C2=O)C[C@@](O)(C(=O)CO)C[C@@H]3O`, the logP turned out to be 2.74.
Same read-out and setting: with `Cc1ccccc1OCC(O)CO` (stereo unspecified) the figure was 1.41; with `CCCCSC(C)(C)C(N)=O`, 1.81.
The same measure, in the same setting: with `C/C=C/c1ccccc1` the figure was 3.35; with `Cc1ccc2[nH]c(CCCCCCc3nc4cc(C)ccc4[nH]3)nc2c1`, 1.76.
With `COC(=O)[C@@]12OC[C@@]34[C@H](C[C@@H]5C(C)=C(O)C(=O)C[C@]5(C)[C@H]3C(O)C1O)OC(=O)C(OC(=O)C=C(C)C(C)C)[C@@H]42` (stereo partly specified), the logP was determined as 1.66. This logP and that of the compound before are within 0.2 log units of each other.
Same read-out and setting: with `O=NN(CCCl)C(=O)NC12CC3CC(CC(C3)C1)C2` the figure was 3.56.
On the same count and under the same terms, in the case of `CN(C)C(=O)Nc1ccc([N+](=O)[O-])cc1` it was 1.51; in that of `CC1=Nc2ccccc2S(=O)(=O)N1`, 0.29; in that of `CCC(C)c1ccccc1OC(=O)N(C)C` (stereo unspecified), 3.31.
Same read-out and setting: in the case of `CC(C)CC(CC(C)C)OC(=O)c1ccc(NC(=O)N(C)C)cc1Cl` it was 5.15; in that of `O=Nc1ccc(O)c2ccccc12`, 2.27; in that of `CCCCCN(CCCCC)/N=C/c1c2c(O)c3c(O)c(C)c4c(c3c1O)C(=O)C(C)(O/C=C\C(OC)C(C)C(OC(C)=O)C(C)C(O)C(C)C(O)C(C)/C=C\C=C(C)C(=O)N2)O4` (stereo unspecified), 3.47.
In the case of `Cc1ccc(/C=C/[N+](=O)[O-])cc1`, the logP is 2.66.
Same read-out and setting: in the case of `O=[N+]([O-])c1cn[nH]c1` it was 0.59; in that of `C1COCCO1`, -0.27; in that of `c1ccc(Sc2ccccc2)cc1`, 4.45.
The same measure, in the same setting: with `O=c1[nH]c2ccccc2s1` the figure was 1.76; with `COc1ccc2[nH]c(CCc3nc4cc(OC)ccc4[nH]3)nc2c1`, 1.14.
On the same count and under the same terms, in the case of `COC(=O)C[C@](O)(CCCC(C)(C)O)C(=O)OC1C(OC)=C[C@]23CCCN2CCc2cc4c(cc2[C@H]13)OCO4` (stereo partly specified) it was 0.82; in that of `C=CCO`, 0.17; in that of `c1ccc2nc3ccccc3nc2c1`, 2.84.
In turn, `CS(=O)(=O)OCCCCOS(C)(=O)=O` registered a logP of -0.52.
Still for that read-out and setting: in the case of `COP(=O)(CC(C)=O)OC` it was 0.86.
The same measure, in the same setting: with `COC(=O)c1cc(Oc2ccc(Cl)cc2Cl)ccc1[N+](=O)[O-]` the figure was 4.48; with `COC(=O)Cc1ccsc1`, 1.46.
Same read-out and setting: with `O=C(c1ccncc1)c1ccccc1O` the figure was 2.13.
As to `CN(C)C(=O)Cc1ccco1`, the logP was 0.01.
The same measure, in the same setting: in the case of `CC(=O)N(c1ccccc1)c1ccccc1` it was 2.05; in that of `CC1=Nc2c(I)cc(Cl)cc2S(=O)(=O)N1`, 1.81.
In the case of `CCOCC1CNc2nc(N)[nH]c(=O)c2N1` (stereo unspecified), the logP is -0.68.
Still for that read-out and setting: with `CCCCCCCCOC(=O)c1cccc(C(=O)OCCCCCCCC)c1` the figure was 5.55; with `CCCc1ccc2c(c1)C(=O)c1ccc(NC(C)=O)cc1S2(=O)=O`, 3.51.
Same read-out and setting: in the case of `CCC1(CCC(C)C)C(=O)NC(=S)NC1=O` it was 2.98.
Same read-out and setting: with `COc1cc2c(c(OC)c1OC)-c1ccc(OC)c(=O)cc1[C@@H](N)CC2` the figure was 0.67; with `CCCOc1cccc(C=C(C(=O)OCC)C(=O)OCC)c1`, 4; with `O=C(N[C@H](CO)[C@H](O)c1ccc(-c2ccccn2)cc1)C(F)(F)F`, 1.31.
The compound `OCC(Br)(Br)Br` yielded a logP of 2.1.
Same read-out and setting: in the case of `CCC(C)NP(=O)(OC)Oc1cc(Cl)c(Cl)cc1Cl` (stereo unspecified) it was 3.99; in that of `COC(=O)Cc1cccs1`, 1.51.
Still for that read-out and setting: with `c1ccc(-n2cccc2)cc1` the figure was 3.08; with `FC(F)(F)Sc1ccccc1`, 3.57; with `CC[N+](=O)[O-]`, 0.18.
Still for that read-out and setting: in the case of `NC(=O)c1ccc(F)cc1` it was 0.91; in that of `COC1=C[C@@]23CCCN2CCc2cc4c(cc2[C@@H]3[C@@H]1O)OCO4`, 0.84.
The compound `CN(C)c1nc2ccccc2o1` showed a logP of 2.1.
Still for that read-out and setting: in the case of `Nc1cc(=O)[nH]cn1` it was -0.99.
Same read-out and setting: in the case of `CC(C)Cl` it was 1.9; in that of `CCCCO[N+](=O)[O-]`, 2.15; in that of `CNC(=O)ON=CC(C)(C)[N+](=O)[O-]`, 0.36.
The same measure, in the same setting: with `CCCCCCCNC(=O)c1ccccc1` the figure was 2.94; with `COc1ccc([N+]([O-])=NC#N)cc1`, 2.15; with `O=c1cc[nH]c2ccccc12`, 0.58.
With `CCOC(=O)c1csc(C=Cc2ccc([N+](=O)[O-])o2)n1`, the log partition coefficient (logP) was 1.3.
The same measure, in the same setting: with `O=c1[nH]c(=O)c2[nH]cnc2[nH]1` the figure was -0.73; with `CC(=O)Nc1ccc2c(c1)S(=O)(=O)c1ccc(C)cc1C2=O`, 2.76.
As for `CC(C)(C)[N+](=O)[O-]`, the logP came out at 1.01.
On the same count and under the same terms, with `CCOP(=O)(OCC)Oc1ccc(SC)cc1Cl` the figure was 3.05.

The same data set, now with this note: pH 0.7.
For orientation: logD means lipophilicity at a set pH, counting ionised and neutral species. A higher logD goes with higher lipophilicity. `O=C(O)c1cc(=O)c2ccccc2o1` yielded a logD of 1.63.

The same data set, now with this note: pH 2.2.
The compound `CCCc1c(OCCCCc2nnn[nH]2)ccc(C(C)=O)c1O` had a logD of 3.82.

Staying with this data set, now noted: pH 7.0.
`CCOC(=O)c1ccc([N+](=O)[O-])cc1`: the logD turned out to be 2.33.
Still for that read-out and setting: with `CC(=O)c1cccc(F)c1` the figure was 1.77; with `COC(=O)c1ccc(OC)cc1`, 2.27; with `CC(=O)Oc1ccc(C(N)=O)cc1`, 0.27.
Turning to `CN(C)c1ccc([N+](=O)[O-])cc1`, the logD is 2.27.
Still for that read-out and setting: in the case of `NC(=O)c1ccco1` it was -0.11.

The data set is the same for the next values; noted with them: pH 7.4.
`Cc1c(NCC(C)C)c(=O)n(-c2ccccc2)c(=O)n1C`: the pH-dependent lipophilicity (logD) is 1.48.
Same read-out and setting: with `N=c1ccccn1O` the figure was -0.87.
On the same count and under the same terms, in the case of `CCN(CC)c1c(C)n(CC)c(=O)n(-c2ccccc2)c1=O` it was 2.2; in that of `CC12CCC(=O)C=C1CCC1C2CCC2(C)C1CCC21CCC(=O)O1` (stereo unspecified), 2.75.

The data set is the same for the next values; noted with them: pH 8.0.
`COc1cc(S(C)=O)ccc1-c1nc2ccccc2[nH]1` (stereo unspecified): the logD was 1.17.

The same data set, now with this note: pH 11.0.
As to `c1cncc(CN2CCCC2)c1`, the logD came out at 1.1.
For `c1cncc(CN2CCOCC2)c1`, the logD was 0.04.

The same data set, now with this note: pH 12.3.
With `CCCC1CNC(C(=O)NC(C(C)O)C2OC(SC)C(O)C(O)C2O)C1` (stereo unspecified), the logD stood at 0.04.

Staying with this data set, now noted: pH 13.0.
`COc1ccc(Cc2cnc(N)nc2N)c(OC)c1OC` showed a logD of 1.52.
With `COC(OC)OC`, the logD turned out to be 0.25.
Still for that read-out and setting: in the case of `CCCCOc1cccc(N2C(N)=NC(N)=NC2(C)C)c1` it was 2.03; in that of `COc1ccc(N2C(N)=NC(N)=NC2(C)C)cc1`, 0.4.
For the compound `COc1cccc(Cc2cnc(N)nc2N)c1OC`, the logD is 1.62.
